Laboratory results: paper PMC10889360, “Therapeutic targeting Tudor domains in leukemia via CRISPR-Scan Assisted Drug Discovery” (Science Advances, 2024)
Counter-ions that a name gives are not always drawn. Like-named read-outs stand apart in the source and are kept apart here. No end group written: not given here. Me3 = trimethyl (trimethyl-lysine)

Key:
[1] = test system: MV4-11; test: cells; set-up: species or system MV4-11; U251; details: for viability at 10 µM: Homo sapiens, read-out: % viability; for % viability: 10 µM
Description: (§1) Compound information and source are listed in data S9. For Cpd_DC60, the initial small scale was obtained from the NCI Developmental Therapeutics Program (NCI/DTP) Open Chemicals Repository. Additional Cpd_DC60 was then custom synthesized by Ambinter (Orléans, France). MV4-11 cells were seeded at 20,000 cells per well, and U251 cells were seeded at 10,000 cells per well. Cells were cultured in 96-well plates at 100 μl per well and replated with fresh medium and compound every 3 days for up to 9 days. At each time point, 15 μl of the CellTiter-Glo 2.0 assay reagent (G9242, Promega) and 20 μl of resuspended cells were mixed in white flat-bottom 96-well plates (353296, Corning), and subsequently, the resultant luminescence was measured using an Infinite M1000 Pro plate reader (Tecan Trading AG, Switzerland). The relative CellTiter Glo signal was normalized to the control condition (DMSO) at each reading time point. Next, we examined the response of SGF29-dependent MV4-11 leukemia cells and the SGF29-independent U251 glioblastoma cells (see Fig. 1H) to these 190 candidate compounds (plus 15 reference compounds) using a CellTiter Glo screen. […] Compared to the pan-cancer inhibitors I-BET151 [inhibits the bromodomain of Bromodomain and Extra-Terminal motif (BET)] ([36]) and JQ1 (blocks BRD4 bromodomain) ([10]), we observed several known leukemia-targeting compounds (EPZ-5676, OICR-9429, A-485, and A-366) ([37]–[40]) within the 19 MV4-11 selective inhibitors (detailed in fig. S7A). On the basis of the selective killing against MV4-11 (Δ Score, i.e., differential CellTiter Glo % between MV4-11 and U251 on day 9), we then chose the top six ranked candidate compounds (Cpd_DC60, 201, 11, 157, 182, and 21) for further investigation (fig. S7B). […] Identification of SGF29 lead inhibitor by CRISPR-SADD workflow. (A) Schematic outline of the Sgf29 high-density CRISPR tiling scan in MLL-AF9-Cas9^+ cells. (B) Two-dimensional annotation of Sgf29 CRISPR-Scan. The blue line indicates the smoothened model of the CRISPR-Scan score derived from 147 sgRNAs (dots) targeting the coding exons of Sgf29. The median NCS scores of the positive control (red dotted line; defined as −1.0) and negative control (green dotted line; defined as 0.0) sgRNAs are highlighted. The blue dashed box indicates the SGF29-TTD domain. (C) Three-dimensional annotation Sgf29 CRISPR-Scan score relative to an x-ray crystal structural model of human SGF29-TTD (PDB ID: 3ME9). The CRISPR hypersensitive (red) aromatic cage of SGF29 Tudor_2 domain is highlighted. (D) Docking box (cube) defined by overlapping the PrankWeb predicted ligandable protein surface (surface contour marked by the dotted pink-line) with the CRISPR hypersensitive region of SGF29-TTD (red areas). (E) Heatmap showing the relative CellTiter Glo signal [% to dimethyl sulfoxide (DMSO) control] of MV4-11 and U251 cells incubated with 205 selected compounds (10 μM) for 3, 6, and 9 days. The effective killing was defined as less than 10% relative CellTiter Glo signal on day 9. Four clusters of compounds are identified, including the U251 selective (7 cpds), noneffective (157 cpds), general toxic (22 cpds), and MV4-11 selective (19 cpds) groups. (F and G) Western blot of (F) MOLM13 cells and (G) MV4-11 cells incubated with Cpd_DC60 (20 μM) for 48 hours. (H) Effect of Cpd_DC60 on the SGF29-TTD/H3K4me3 AlphaScreen signal. (I) Left: Docking simulation model of SGF29-TTD (colored by NCS) interacts with Cpd_DC60 (yellow). Right: Overlap of SGF29-TTD/H3K4me3 (cyan) cocrystal structure (PDB ID: 3ME9) with the predicted Cpd_DC60 (yellow) binding post on SGF29-TTD. The “aromatic cage” that consists of Y238, Y245, and F264 is indicated. a.a., amino acid. IC50, median inhibitory concentration.

[2] = test system: U251 (U-251); test: cells; set-up: species or system MV4-11; U251; details: for viability at 10 µM: Homo sapiens, read-out: % viability; for % viability: 10 µM
Description: as §1

[3] = target: T1, recombinant His6-tagged SGF29 tandem Tudor domain (SGF29-TTD), residues Met114 to Lys293 (human, UniProt Q96ES7 114-293); test: AlphaScreen or HTRF; AlphaScreen Histidine (Nickel Chelate) Detection Kit; 75 nM SGF29-TTD, 150 nM H3(1-18)K4me3-bio, 0.8% DMSO, acceptor/donor beads 20 ug/ml; 50 mM Hepes, 100 mM NaCl, 5 mM TCEP, pH 7.4; 25 C, 3 hours; signal blocked by the small molecule Cpd_DC60; details: both partners purified
T1 construct: SAGA-associated factor 29 (SGF29), human, tandem Tudor domain, residues Met114 to Lys293, UniProt Q96ES7; 22.9 kDa with the tag; Codon-optimised cDNA with synonymous changes only; No tag cleavage is described; the chain is detected by the nickel chelate AlphaScreen beads; The forward primer carries the end of a TEV site (ENLYFQS) from the vector before Met114; also called SGF29_Tudor 2; …
T1 sequence (looked up): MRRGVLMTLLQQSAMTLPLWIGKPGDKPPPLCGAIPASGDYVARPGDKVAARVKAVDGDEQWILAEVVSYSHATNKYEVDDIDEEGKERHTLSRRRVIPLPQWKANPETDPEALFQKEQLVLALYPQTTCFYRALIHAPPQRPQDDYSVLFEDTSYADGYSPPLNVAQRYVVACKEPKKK

binding result [3] | Molecule | viability at 10 µM ([1]; MV4-11, 72 h) [%] | viability at 10 µM ([1]; MV4-11, 144 h) [%] | viability at 10 µM ([1]; MV4-11, 216 h) [%] | viability at 10 µM ([2]; U-251, 72 h) [%] | viability at 10 µM ([2]; U-251, 144 h) [%] | viability at 10 µM ([2]; U-251, 216 h) [%] | % viability ([1]; day 3, 72 h) [%] | % viability ([1]; day 6, 144 h) [%] | % viability ([1]; day 9, 216 h) [%] | % viability ([2]; day 3, 72 h) [%] | % viability ([2]; day 6, 144 h) [%] | % viability ([2]; day 9, 216 h) [%]
– | Cc1ccc2nc(-c3ccc(N4C(=O)C5C6c7ccccc7C(c7ccccc76)C5C4=O)cc3)sc2c1 (stereo not shown) [compound 23, ZINC000008935041] | 41.6 | 14.8 | 4.43 | 87.4 | 48.7 | 11 | – | – | – | – | – | –
– | CC(C)(C)NCCCNC(=O)c1cccc(Br)c1 [compound 31, UNC2170 trifluoroacetate] | 120 | 93.1 | 125 | 111 | 110 | 106 | – | – | – | – | – | –
– | CCC[C@H](NC(=O)[C@@H]1[C@H]2CCC[C@H]2CN1C(=O)[C@@H](NC(=O)[C@@H](NC(=O)c1cnccn1)C1CCCCC1)C(C)(C)C)C(=O)C(=O)NC1CC1 [compound 76, Telaprevir (VX-950)] | – | – | – | – | – | – | 12.16 | 1.882 | 0.2706 | 49.36 | 17.7 | 2.593
– | COc1cc2c(cc1-c1c(C)noc1C)ncc1[nH]c(=O)n([C@H](C)c3ccccn3)c12 [compound 78, I-BET151] | 0.356 | 0.218 | 0.24 | 14.5 | 0.804 | 0.227 | – | – | – | – | – | –
– | O=C(Cc1ccccc1)Nc1ccc2oc(-c3ccc4ccccc4c3)nc2c1 [compound 172, ZINC000001204199] | 114 | 101 | 78.6 | 108 | 107 | 112 | – | – | – | – | – | –
– | Nc1c(Br)cc([N+](=O)[O-])cc1Br [compound 240, ZINC000001641734] | 95.7 | 86.7 | 89 | 110 | 106 | 115 | – | – | – | – | – | –
binds | ARTK(Me3)QTARKSTGGKAPRK (peptide, UniProt P68431 2-19, looked up, also: biotin, position not given here, histone H3, residues 1-18, trimethylated at lysine 4; source: synthetic peptide (Thermo Fisher Scientific)) [H3(1-18)K4me3-bio (biotinylated H3K4me3) peptide] | – | – | – | – | – | – | – | – | – | – | – | –
